From article PMC8185074, “Anchor extension: a structure-guided approach to design cyclic peptides targeting enzyme active sites” (Nature Communications, 2021)
pIC50: −log10 of the molar value. Peptide text beside a SMILES is read from it.

These compounds were tested against T1, HDAC2 (Homo sapiens, UniProt Q92769) (assay: Initial HDAC2 IC50 estimate (BPS Biosciences HDAC fluorogenic assay kit)). Settings: HDAC2 activity (initial activity), Supplementary Dataset 2.
T1 construct: purchased Reaction Biology Corporation (assay run by the CRO)
T1 sequence (Q92769 whole entry): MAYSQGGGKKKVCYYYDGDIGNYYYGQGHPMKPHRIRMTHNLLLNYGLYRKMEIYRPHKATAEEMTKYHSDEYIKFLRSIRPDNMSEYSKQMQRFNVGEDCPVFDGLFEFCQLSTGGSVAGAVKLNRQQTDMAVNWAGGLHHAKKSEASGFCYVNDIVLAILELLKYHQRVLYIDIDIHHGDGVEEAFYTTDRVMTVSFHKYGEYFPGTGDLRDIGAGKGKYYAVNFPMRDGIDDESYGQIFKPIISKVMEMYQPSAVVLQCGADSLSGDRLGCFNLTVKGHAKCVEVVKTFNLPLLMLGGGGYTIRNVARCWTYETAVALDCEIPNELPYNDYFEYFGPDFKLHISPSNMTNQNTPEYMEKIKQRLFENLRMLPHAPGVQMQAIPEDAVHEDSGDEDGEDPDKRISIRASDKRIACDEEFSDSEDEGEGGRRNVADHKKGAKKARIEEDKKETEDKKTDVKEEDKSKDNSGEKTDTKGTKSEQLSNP
Assay type: biochemical
Protocol: Initial IC50 values were estimated using HDAC fluorogenic assay kits from BPS Biosciences (HDAC2, HDAC4, and HDAC6) following the protocol described in the kit. All the measures were performed in duplicates or triplicates. These measurements were done either on full range of concentrations (1:10 dilution from 1 µM to 100 pM) or on two concentrations only (20 nM and 200 nM) as an estimate of the range. […] Source Data are provided as a Source Data file.

Row | Compound | pIC50
1 | N=C(N)NCCC[C@@H]1NC(=O)[C@@H](CCCNC(=N)N)NC(=O)[C@H]2CCCN2C(=O)[C@@H](CC(N)=O)NC(=O)[C@H](Cc2ccc(O)cc2)NC(=O)[C@H](CCCCCS)NC(=O)[C@H](CCc2ccccc2)NC(=O)[C@@H](CCCCN)NC(=O)[C@H](CC(=O)O)NC1=O [des3.4.0, SHA-Tyr-dAsn-dPro-dArg-Arg-Asp-dLys-C27] (HELM PEPTIDE1{D.[dK].[O=C([C@H](CCc1ccccc1)N[*:1])[*:2]].[O=C([C@H](CCCCCS)N[*:1])[*:2]].Y.[dN].[dP].[dR].R}$PEPTIDE1,PEPTIDE1,1:R1-9:R2$$$V2.0) | 7.00 to 8.00
2 | C[C@H]1NC(=O)[C@H](CCCCCS)NC(=O)[C@H](CCN)NC(=O)[C@@H](CC(N)=O)NC(=O)[C@H](CO)NC(=O)[C@H](CC(=O)O)NC(=O)[C@@H](CC(=O)O)NC(=O)[C@@H]2CCCN2C(=O)[C@H](Cc2ccccc2)NC1=O [des3.5.1, SHA-dAla-Phe-Pro-dAsp-Asp-Ser-dAsn-Dab] (HELM PEPTIDE1{D.S.[dN].[Dab].[O=C([C@H](CCCCCS)N[*:1])[*:2]].[dA].F.P.[dD]}$PEPTIDE1,PEPTIDE1,1:R1-9:R2$$$V2.0) | < 6.00
3 | C[C@H]1NC(=O)[C@@H](Cc2c[nH]cn2)NC(=O)[C@H](CCCCCS)NC(=O)[C@H](Cc2c[nH]c3ccccc23)NC(=O)[C@@H](CCCNC(=N)N)NC(=O)[C@@H]2CCCN2C(=O)[C@@H](CC(N)=O)NC(=O)[C@@H](CC(N)=O)NC(=O)[C@H](Cc2ccc(O)cc2)NC1=O [des3.6.0, SHA-dHis-dAla-Tyr-dAsn-dAsn-Pro-dArg-Trp] (HELM PEPTIDE1{P.[dR].W.[O=C([C@H](CCCCCS)N[*:1])[*:2]].[dH].[dA].Y.[dN].[dN]}$PEPTIDE1,PEPTIDE1,1:R1-9:R2$$$V2.0) | < 6.00
4 | CC(C)C[C@@H]1NC(=O)[C@@H](CCC(=O)O)NC(=O)[C@@H](CC(N)=O)NC(=O)[C@@H](Cc2c[nH]cn2)NC(=O)[C@H](CCCCCS)NC(=O)[C@H](Cc2ccc3ccccc3c2)NC(=O)[C@H](CCCNC(=N)N)NC(=O)[C@@H]2CCCN2C(=O)[C@@H](C)NC1=O [des3.8.0, SHA-dHis-dAsn-dGlu-Leu-dAla-Pro-Arg-B74] (HELM PEPTIDE1{[O=C([C@H](Cc1ccc2ccccc2c1)N[*:1])[*:2]].[O=C([C@H](CCCCCS)N[*:1])[*:2]].[dH].[dN].[dE].L.[dA].P.R}$PEPTIDE1,PEPTIDE1,1:R1-9:R2$$$V2.0) | < 6.00
5 | C[C@@H]1NC(=O)[C@@H](CCCNC(=N)N)NC(=O)[C@H](CCCCCS)NC(=O)[C@H](CCc2ccccc2)NC(=O)[C@@H](CCCNC(=N)N)NC(=O)[C@@H](Cc2ccccc2)NC(=O)[C@@H](CCC(=O)O)NC(=O)[C@@H](CCCCN)NC(=O)[C@@H]2CCCN2C1=O [des3.10.0, SHA-dArg-Ala-Pro-dLys-dGlu-dPhe-dArg-C27] (HELM PEPTIDE1{A.P.[dK].[dE].[dF].[dR].[O=C([C@H](CCc1ccccc1)N[*:1])[*:2]].[O=C([C@H](CCCCCS)N[*:1])[*:2]].[dR]}$PEPTIDE1,PEPTIDE1,1:R1-9:R2$$$V2.0) | 7.00 to 8.00

Same assay, conditions: Supplementary Dataset 2; read-out: HDAC2 activity (initial activity)

Row | Compound | pIC50
6 | CCCC[C@@H]1NC(=O)[C@H](CCCCCS)NC(=O)[C@H](CCc2ccccc2)NC(=O)[C@H](C)NC(=O)[C@@H]2CCCN2C(=O)[C@@H](CC(=O)O)NC(=O)[C@@H](CO)NC(=O)[C@H](Cc2c[nH]c3ccccc23)NC(=O)[C@@H](CO)NC1=O [des3.7.0, SHA-Nlu-dSer-Trp-dSer-dAsp-Pro-Ala-C27] (HELM PEPTIDE1{[O=C([C@H](CCCCCS)N[*:1])[*:2]].[Nle].[dS].W.[dS].[dD].P.A.[O=C([C@H](CCc1ccccc1)N[*:1])[*:2]]}$PEPTIDE1,PEPTIDE1,1:R1-9:R2$$$V2.0) | < 6.00
